Reference: patent US20160200698A1, “VORTIOXETINE SALT AND CRYSTAL THEREOF, THEIR PREPARATION METHOD, PHARMACEUTICAL COMPOSITIONS AND USAGE” (HANGZHOU PUSHAI PHARMACEUTICAL TECHNOLOGY CO., LTD, priority 2013, published 2016)
Counter-ions that a name gives are not always drawn. One block for each molecule: values may come before it.

What was measured:
Type in all cases: physicochemical
[1] = Inventors' studies of the known crystalline forms of vortioxetine hydrobromide of WO2007/144005A1; conditions: for Stability under high-temperature conditions: hydrobromide
Description: In studies, the inventors of the present invention found out that the multiple crystalline forms of vortioxetine hydrobromide disclosed in WO2007/144005A1 have the following disadvantages: […]

[2] = Stability competition test (competitive slurry, XRPD analysis); conditions: for Stability Competition Test: crystalline form after competitive slurry (XRPD): ethanol or water, equal quantity of both forms slurried 7 days; for Stability competition test: crystalline form after slurry (summary statement): slurried in water or ethanol, temperature not stated
Procedure: Stability competition test: An equal quantity (250 mg) of the crystalline vortioxetine hemihydrobromide form of the present invention prepared in example 4 and the β Form of vortioxetine hydrobromide prepared in preparation example 2 were respectively added to 3 mL of ethanol or water to produce suspensions. No solvate was formed in ethanol or water. The suspensions were slurried for 7 days at room temperature or at 60° C., and then XRPD characterization analyses were performed.

[3] = Dissolution comparison of sustained-release tablets made by the method of example 141; conditions: water, 37° C., paddle 50 r/min
Procedure: The crystalline form of vortioxetine hemihydrobromide of the present invention and the β Form of vortioxetine hydrobromide prepared in preparation example 2 were tabletted by the method of example 141 and then subjected to dissolution comparison. Water was used as the dissolution medium. Parameter setting of the dissolution tester: The temperature was 37° C. The rotate speed of the stirring paddle was 50 r/min Take 3 ml of the dissolution medium out at 0.5, 1, 2, 6 and 12 hours respectively. Each time after sampling, 3 mL of water was added back to the dissolution medium to supplement the volume. The concentration of the dissolution medium at each time point was determined by HPLC.

[4] = Hygroscopicity comparison by DVS isothermal sorption curve; conditions: 20%-80% RH range
Procedure: Dynamic vapor sorption (DVS) data were collected using TA Instruments Q5000 TGA. The instrument control software was Thermal Advantage, and the analytical software was Universal Analysis. Usually, 1-10 mg of the sample was placed in a platinum pan and the weight change of the sample during experiments was recorded. The relative humidity was usually programmed to change from 20% to 80% and then back to 20%, and an isothermal sorption curve could be generated. Depending on specific situations, different sorption and desorption procedures might be used.
Hygroscopicity comparison: DVS isothermal sorption curves were used, and weight changes within the 20%-80% RH range were measured.

[5] = Dissolution of tablets made by the method of example 105 (paddle method, water); conditions: 900 mL water, 37° C., paddle 50 r/min
Procedure: The crystalline form of vortioxetine hemihydrobromide of the present invention, the β Form of vortioxetine hydrobromide prepared in preparation example 2 and the β Form of vortioxetine hydrobromide containing 20% of the crystalline form of vortioxetine hemihydrobromide of the present invention were tabletted by the method in example 105 and then subjected to phase stability comparison. Dissolution was determined by reference to the dissolution conditions of Benorilate Tablets described in 2010 Chinese Pharmacopoeia. The paddle method was used with the paddle rotation speed at 50 r/min 900 mL of water was the dissolution medium. The temperature was 37° C. Take 3 mL of the dissolution medium for sampling at 2, 10, 20, 40 and 60 min respectively. Each time after sampling, 3 mL of water was added back to dissolution medium to supplement the volume. The concentration of the dissolution medium at each time point was measured by HPLC, and the dissolution profile was plotted.

[6] = Storage of the crystalline form in desiccators at controlled humidity; conditions: desiccators at 10% RH-90% RH, room temperature, 4 months
Description: It is more temperature and humidity robust and is less likely to have content uniformity and stability issues during pharmaceutical production and storage, thus reduces the risk of inefficacy and safety issue caused thereby and improves dosing accuracy.

[7] = listed as the known β Form of vortioxetine hydrobromide, hydrobromide
[8] = sampling time 0.5 hours, hydrobromide
[9] = sampling time 1 hour, hydrobromide
[10] = sampling time 2 hours, hydrobromide
[11] = sampling time 6 hours, hydrobromide
[12] = sampling time 12 hours, hydrobromide
[13] = sampling time 2 min, hydrobromide
[14] = sampling time 10 min, hydrobromide
[15] = sampling time 20 min, hydrobromide
[16] = sampling time 40 min, hydrobromide
[17] = sampling time 0.5 hours, hemihydrobromide
[18] = sampling time 1 hour, hemihydrobromide
[19] = sampling time 2 hours, hemihydrobromide
[20] = sampling time 6 hours, hemihydrobromide
[21] = sampling time 12 hours, hemihydrobromide
[22] = sampling time 2 min, hemihydrobromide
[23] = sampling time 10 min, hemihydrobromide
[24] = sampling time 20 min, hemihydrobromide
[25] = sampling time 40 min, hemihydrobromide

Structure (SMILES): Cc1ccc(Sc2ccccc2N2CCNCC2)c(C)c1 [ethyl acetate solvate of vortioxetine hydrobromide]
Stability under high-humidity conditions ([1]; high-humidity conditions): transformed to hydrate
Stability under high-temperature conditions [1]: lost ethyl acetate

Structure (SMILES): Cc1ccc(Sc2ccccc2N2CCNCC2)c(C)c1 [hydrate of vortioxetine hydrobromide, vortioxetine hydrobromide]
Stability under high-temperature conditions [1]: lost water

Structure (SMILES): Cc1ccc(Sc2ccccc2N2CCNCC2)c(C)c1 [the β Form of vortioxetine hydrobromide, 1-[2-(2,4-dimethylphenylsulfanyl)phenyl]piperazine hydrobromide]
Stability Competition Test: crystalline form after competitive slurry (XRPD) ([2]; 60° C., listed as the known β Form of vortioxetine hydrobromide, hydrobromide): completely transformed into the vortioxetine hemihydrobromide crystalline form of the present invention
Stability Competition Test: crystalline form after competitive slurry (XRPD) ([2]; room temperature, listed as the known β Form of vortioxetine hydrobromide, hydrobromide): completely transformed into the vortioxetine hemihydrobromide crystalline form of the present invention
Stability competition test: crystalline form after slurry (summary statement) ([2]; hydrobromide): failed to maintain its original crystalline form and transformed to the vortioxetine hemihydrobromide crystalline form of the present invention
Stability competition test: crystalline form after slurry (summary statement) [2, 7]: completely transformed to the crystalline vortioxetine hemihydrobromide of the present invention
Stability competition test: crystalline form after slurry (summary statement) ([2]; listed as β Form of vortioxetine hydrobromide, hydrobromide): failed to maintain its original crystalline form
Concentration [3, 8]: 16370 ng/mL
Cumulative dissolution [3, 8]: 50.0%
Concentration [3, 9]: 29710 ng/mL
Cumulative dissolution [3, 9]: 90.9%
Concentration [3, 10]: 30810 ng/mL
Cumulative dissolution [3, 10]: 94.2%
Concentration [3, 11]: 31560 ng/mL
Cumulative dissolution [3, 11]: 96.5%
Concentration [3, 12]: 33420 ng/mL
Cumulative dissolution [3, 12]: 100.0%
Hygroscopicity Comparison (weight change) [4, 7]: 0.60%
Concentration [5, 13]: 13120 ng/mL
Cumulative dissolution [5, 13]: 40.1%
Concentration [5, 14]: 28050 ng/mL
Cumulative dissolution [5, 14]: 85.8%
Concentration [5, 15]: 30020 ng/mL
Cumulative dissolution [5, 15]: 91.8%
Concentration [5, 16]: 31660 ng/mL
Cumulative dissolution [5, 16]: 96.8%
Concentration ([5]; sampling time 60 min, hydrobromide): 33420 ng/mL

Structure (SMILES): Cc1ccc(Sc2ccccc2N2CCNCC2)c(C)c1 [α Form of vortioxetine hydrobromide, vortioxetine hydrobromide]
Crystalline form stability at room temperature ([1]; room temperature): transformed to the β Form of vortioxetine hydrobromide

Further lines, results first:

Stability Competition Test: crystalline form after competitive slurry (XRPD) ([2]; 60° C., listed as the vortioxetine hemihydrobromide crystalline form of the present invention, hemihydrobromide): present invention kept unchanged”
Stability Competition Test: crystalline form after competitive slurry (XRPD) ([2]; room temperature, listed as the vortioxetine hemihydrobromide crystalline form of the present invention, hemihydrobromide): present invention kept unchanged”
Stability competition test: crystalline form after slurry (summary statement) ([2]; hemihydrobromide): keeping its crystalline form unchanged
Concentration [3, 17]: 2250 ng/mL
Cumulative dissolution [3, 17]: 8.1%
Concentration [3, 18]: 3980 ng/mL
Cumulative dissolution [3, 18]: 14.3%
Concentration [3, 19]: 7650 ng/mL
Cumulative dissolution [3, 19]: 27.4%
Concentration [3, 20]: 12640 ng/mL
Cumulative dissolution [3, 20]: 58.5%
Concentration [3, 21]: 26330 ng/mL
Cumulative dissolution [3, 21]: 94.5%
Hygroscopicity Comparison (weight change) ([4]; listed as Example 4, hemihydrobromide): 0.28%
Hygroscopicity Comparison (weight change) ([4]; listed as the vortioxetine hemihydrobromide crystalline form of the present invention, hemihydrobromide): 0.28%
Concentration [5, 22]: 2270 ng/mL
Cumulative dissolution [5, 22]: 8.2%
Concentration [5, 23]: 4320 ng/mL
Cumulative dissolution [5, 23]: 15.5%
Concentration [5, 24]: 7720 ng/mL
Cumulative dissolution [5, 24]: 27.7%
Concentration [5, 25]: 11330 ng/mL
Cumulative dissolution [5, 25]: 52.4%
Cumulative dissolution ([5]; sampling time 60 min): 100.0%
Concentration ([5]; sampling time 60 min, hemihydrobromide): 27860 ng/mL
Structure (SMILES): Cc1ccc(Sc2ccccc2N2CCNCC2)c(C)c1 [vortioxetine hemihydrobromide]

Crystalline form after storage [6]: remained unchanged
Structure (SMILES): Cc1ccc(Sc2ccccc2N2CCNCC2)c(C)c1 [vortioxetine hydrobromide isopropanol solvate]

Stability (general finding) [1]: very unstable
Hygroscopicity ([1]; low-humidity conditions): 2.0%
Structure (SMILES): Cc1ccc(Sc2ccccc2N2CCNCC2)c(C)c1 [γ Form of vortioxetine hydrobromide, vortioxetine hydrobromide]
